Reference: patent publication US9040713B2, “Methods of managing blood sugar levels and compositions related thereto” (EMORY UNIVERSITY, priority 2010, dated 2015)

Assays:
GFP-IRTK R2 = experiment: In vitro kinase assay of IRTK/IGF-1R kinase hybrids; type: biochemical, human; details: R2 region of IRTK replaced with IGF-1R
Method: Parental CHO cells were used as a negative control (Bottom panel). The fluorescence-labeled cells were analyzed on flow cytometry. (B) 4524-E7 protects IRTK from proteolysis. GST-IRTK was subjected to limited trypsin or chymotrypsin digestion in the presence of 4524-E7 (50 μM), ATPyS (5 μM) or both at 37° C. for 5 min. The reaction mixture was resolved by SDS-PAGE, followed by silver staining Cleaved fragments were asterisked. (C) 4524-E7 increases IRTK activity in vitro. Recombinant GST-IRTK, GST-IGFRTK, and GST-EGFRTK were incubated with different concentrations of 4524-E7 or 10 μM 2—NH2-NQ and the kinase activity was examined by monitoring the phosphorylation of histone H2B. (E) In vitro kinase activity of various IRTK/IGF-1R kinase hybrids. The GFP-tagged kinases were expressed in HEK293, immunoprecipitated and incubated with different concentrations of 4524-E7 as indicated. […] Expressions of the kinases were also verified (lower panel).
To test if these regions are the action sites of 4524-E7, several GFP-tagged hybrid kinases were generated with R1 (GFP-IRTK R1), R2 (GFP-IRTK R2) or both (GFP-IRTK R1+R2) regions of IRTK and replaced with the corresponding sequence of IGF-1R. These mutants were then used to perform the in vitro kinase assay in the presence of 4524-E7. […]

IR-IGFR = experiment: His-tagged chimaeric receptor phosphorylation in CHO cells; type: cell-based, human; details: 5 μM, 30 min
Method: (§1) (A) Chemical structure of 4524-E7. (B) Effect of 4524-E7 and other 1,4-naphthoquinone derivatives on IR phosphorylation in CHO-IR cells. CHO-IR cells were cultured in 96-well plates and treated with 5 μM compounds for 15 min at 37 C. Cells were lysed, and IR phosphorylations were tested by ELISA. The IR phosphorylation activities of the tested compounds were expressed as a percentage of the vehicle. (C) 4524-E7 and 1,4-naphthoquinone derivates activate IR and its downstream signaling in CHO-IR cells. […] The cell lysates were analyzed by immunoblotting with various indicated antibodies. The phosphorylated IR was immunoprecipitated using PY20 and analyzed by immunoblotting with anti-IR13 antibody. […] The phosphorylation of each receptor was determined by Western blot using specific antibodies as indicated. (E) 4524-E7 activates IR through its ICD. Upper panel: Diagram of chimaeric receptors. Lower panel: His-tagged wild-type IR, IGFR-IR, IR-IGFR, and IR-EGFR constructs were transfected into CHO cells followed vehicle or 5 μM 4524-E7 treatment for 30 min. Then the cells were lysated and the transfected receptor fused to His tag were pulled down with Ni+ beads, followed by western blot against anti-p-Tyr and anti-His. The cell lysates were tested with anti-p-Akt and anti-Akt.
(§2) The cDNA encoding wild type IR was introduced into the pcDNA3.1/V5-His-TOPO vector. […]

IGFR-IR hybrid = experiment: as above; type: cell-based, human; details: 5 μM, 30 min
Method: as §1, §2

FGFR1 = FGFR1 (Homo sapiens, UniProt P11362); experiment: RTK kinase profile screen assay; type: biochemical; details: 10 μM
C57B5L/6J mice = experiment: Hyperinsulinemic-euglycemic clamp; type: in vivo, mouse; details: 5 mg/kg oral 1 h before clamp
Method: (A) 4524-E7 provokes IR phosphorylation in various tissues of mice. Three-month-old C57BL/6J mice were starved for 12 h and then dosed with vehicle (0.5% methylcellulose) or 4524-E7 (20 mg/kg). Cell lysates from liver, muscle, and WAT were prepared at 3, 4, and 5 h after drug administration and analyzed by immunoblotting. (B) Basal and insulin-stimulated hepatic glucose production rates were measured by hyperinsulinemic-euglycemic clamp. […] (C) Hypoglycemic effect of 4524-E7 in C57BL/6J mice. C57BL/6J mice were starved for 12 h and then orally administrated with vehicle (0.5% methylcellulose) or 4524-E7 (5 mg/kg). Blood glucose was monitored at different time points as indicated (n=8, *: P<0.05, two-way ANOVA). (D) Hypoglycemic effect in db/db mice. db/db mice were starved for 12 h and then orally injected with vehicle (0.5% methylcellulose) or 4524-E7 (5 mg/kg). Blood glucose was monitored at different time points as indicated (n=5, *: P<0.05, two-way ANOVA). (E) Glucose tolerance test in ob/ob mice. The mice were starved for 12 hours and then orally administrated with vehicle or 4524-E7 (5 mg/kg). A bonus of glucose (2 gm/kg) was injected intraperitoneally 1 hour later. Blood glucose was then measured at 30 min intervals (n=13, *: P<0.05; **: P<0.01, two-way ANOVA).
C57B5L/6J mice were fasted for 12 h. […] In vivo hepatic glucose output was then determined by hyperinsulinemic-euglycemic clamp.

Chain of FGFR1 (P11362 22-822, species assumed): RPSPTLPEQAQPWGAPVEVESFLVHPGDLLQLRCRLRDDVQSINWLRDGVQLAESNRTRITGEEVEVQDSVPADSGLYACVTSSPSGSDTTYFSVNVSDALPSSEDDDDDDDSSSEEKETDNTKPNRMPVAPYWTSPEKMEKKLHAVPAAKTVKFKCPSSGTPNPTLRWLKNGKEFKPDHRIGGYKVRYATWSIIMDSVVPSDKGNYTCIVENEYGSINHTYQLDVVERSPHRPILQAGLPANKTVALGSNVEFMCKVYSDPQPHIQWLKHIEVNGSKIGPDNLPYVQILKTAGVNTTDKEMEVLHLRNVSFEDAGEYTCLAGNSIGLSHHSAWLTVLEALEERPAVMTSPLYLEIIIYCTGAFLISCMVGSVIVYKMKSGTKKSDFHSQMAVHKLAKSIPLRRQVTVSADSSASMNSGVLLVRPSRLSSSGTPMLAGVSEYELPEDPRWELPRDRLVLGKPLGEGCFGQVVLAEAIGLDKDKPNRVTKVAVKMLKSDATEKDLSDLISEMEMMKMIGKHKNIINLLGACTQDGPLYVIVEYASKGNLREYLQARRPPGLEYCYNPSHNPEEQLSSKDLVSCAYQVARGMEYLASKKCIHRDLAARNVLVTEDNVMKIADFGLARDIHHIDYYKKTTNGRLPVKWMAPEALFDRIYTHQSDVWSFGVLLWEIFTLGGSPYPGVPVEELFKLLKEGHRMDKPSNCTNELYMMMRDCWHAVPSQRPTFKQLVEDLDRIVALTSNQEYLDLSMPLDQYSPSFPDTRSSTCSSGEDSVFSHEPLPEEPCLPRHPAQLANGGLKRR

kinase stimulatory effect on hybrid kinase (GFP-IRTK R2): abolishes the kinase stimulatory effect
inhibition of FGFR1 (FGFR1): slightly inhibited
Compound: O=C1c2ccccc2C(=O)C2SC(Nc3ccc(Cl)cc3)=NC12 (centres unmarked) [4524-E7, 2-((4-chlorophenyl)amino)naphtho[2,3-d]thiazole-4,9(3aH,9aH)-dione]
tyrosine phosphorylation of chimaeric receptor (IR-IGFR): not phosphorylated
tyrosine phosphorylation of chimaeric receptor (IGFR-IR hybrid): selective tyrosine phosphorylation
insulin-stimulated suppression of hepatic glucose output (C57B5L/6J mice): potentiated the insulin actions in suppressing hepatic glucose output
